Assay results taken from PMC8177795 (Cancer Science, 2021).
Several values for one entry are separate records, joined by “and”; a condition that tells them apart may be missing. Identical values can stand only once.

Columns and labels:
[1] = Plasma pharmacokinetics of acalabrutinib and ACP‐5862; type: in vivo, Japanese patients; conditions: for M/P ratio (metabolite to parent), AUC / M/P ratio (metabolite to parent), AUC0–12 / M/P ratio (metabolite to parent), AUC0–t / M/P ratio (metabolite to parent), Cmax: part 1
BTK = conditions: no reference given; cited from earlier work
[2] = multiple dose 100 mg BID, day 8, part 1
[3] = multiple dose 100 mg BID, day 8, part 1, fasting
[4] = single dose 100 mg acalabrutinib, part 1, fasting

RAC (extent of accumulation on multiple dosing), Amean ± SD [1, 2]: 2.72 and 2.722 ± 2.826 | TC (time dependency of pharmacokinetics), Amean ± SD [1, 2]: 1.444 ± 0.8136 | AUC0–12, Gmean (CV) [1, 3]: 1987 (8%) ng∙h/mL | AUC0–t, Gmean (CV) [1, 3]: 1985 (8%) ng∙h/mL | AUC (zero to infinity), Gmean (CV) [1, 3]: 2099 (7%) ng∙h/mL | Cmax, Gmean (CV) [1, 3]: 629.7 (27%) ng/mL | t1/2, Amean ± SD [1, 3]: 3.216 ± 0.3938 h | tmax, median (min, max) [1, 3]: 0.940 (0.750, 1.080) h | M/P ratio (metabolite to parent), AUC ([1]; multiple dose): 1.73 | M/P ratio (metabolite to parent), AUC0–12 ([1]; multiple dose): 1.64 | M/P ratio (metabolite to parent), AUC0–t ([1]; multiple dose): 1.65 | M/P ratio (metabolite to parent), Cmax ([1]; multiple dose): 0.56 | AUC0–12, Gmean (CV) [1, 4]: 1092 (124%) ng∙h/mL | AUC0–t, Gmean (CV) [1, 4]: 1306 (94%) ng∙h/mL | AUC (zero to infinity), Gmean (CV) [1, 4]: 1557 (60%) ng∙h/mL | Cmax, Gmean (CV) [1, 4]: 316.5 (260%) ng/mL | t1/2, Amean ± SD [1, 4]: 10.18 ± 7.986 h | tmax, median (min, max) [1, 4]: 0.965 (0.900, 4.000) h | M/P ratio (metabolite to parent), AUC ([1]; single dose): 1.40 | M/P ratio (metabolite to parent), AUC0–12 ([1]; single dose): 1.23 | M/P ratio (metabolite to parent), AUC0–t ([1]; single dose): 1.36 | M/P ratio (metabolite to parent), Cmax ([1]; single dose): 0.53
SMILES: CC#CC(=O)NCCCC(=O)c1nc(-c2ccc(C(=O)Nc3ccccn3)cc2)c2c(N)nccn12 [ACP‐5862]
Potency for BTK inactivation relative to the parent agent acalabrutinib (BTK): approximately 50%
